Results taken from US20050009889A1 (priority 2002, published 2005).
Where two headings read alike, the source gives them in different places. Marks after values point to notes of the source that are not given here.

What was measured:
Format in all cases: in vivo
[1] = system: Plasmopara viticola; test: Test G: curative control of grape downy mildew on grape seedlings
Description: (§1) General protocol for preparing test suspensions: Test compounds are first dissolved in acetone in an amount equal to 3% of the final volume and then suspended at the desired concentration (in ppm) in acetone and purified water (50/50 mix) containing 250 ppm of the surfactant Trem® 014 (polyhydric alcohol esters). The resulting test suspensions are then used in the following tests. Spraying a 200 ppm test suspension to the point of run-off on the test plants is the equivalent of a rate of 500 g/ha.
Grape seedlings are inoculated with a spore suspension of Plasmopara viticola (the casual agent of grape downy mildew) and incubated in a saturated atmosphere at 20° C. for 24 h. The next day, test suspension is sprayed to the point of run-off and the treated plants are moved to a growth chamber at 20° C. for 6 days, and then incubated in a saturated atmosphere at 20° C. for 24 h, after which disease ratings are made.

[2] = system: Phytophthora infestans; conditions: tomato seedlings sprayed to run-off, inoculated next day; concentration not given
[3] = system: Plasmopara viticola; test: Test E: preventive control of grape downy mildew on grape seedlings; conditions: grape seedlings sprayed to run-off, inoculated next day; concentration not given
Description: as §1
The test suspension was sprayed to the point of run-off on grape seedlings. The following day the seedlings were inoculated with a spore suspension of Plasmopara viticola (the causal agent of grape downy mildew) and incubated in a saturated atmosphere at 20° C. for 24 h, moved to a growth chamber at 20° C. for 6 days, and then incubated in a saturated atmosphere at 20° C. for 24 h, after which disease ratings were made.

[4] = system: grape downy mildew; test: Curative utility, in addition to the Tests of Table A; conditions: especially for grape downy mildew
[5] = system: Pyricularia oryzae; conditions: rice seedlings sprayed to run-off, inoculated next day; concentration not given
[6] = system: Puccinia recondita; test: Test B: preventive control of wheat leaf rust on wheat seedlings; conditions: wheat seedlings sprayed to run-off, inoculated next day; concentration not given
Description: as §1
The test suspension was sprayed to the point of run-off on wheat seedlings. The following day the seedlings were inoculated with a spore suspension of Puccinia recondita (the causal agent of wheat leaf rust) and incubated in a saturated atmosphere at 20° C. for 24 h, and then moved to a growth chamber at 20° C. for 6 days, after which disease ratings were made.

[7] = system: Erysiphe graminis f. sp. tritici; test: Test A: preventive control of wheat powdery mildew on wheat seedlings; conditions: wheat seedlings sprayed to run-off, inoculated next day, rated after 7 days; concentration not given
Description: as §1
The test suspension was sprayed to the point of run-off on wheat seedlings. The following day the seedlings were inoculated with a spore dust of Erysiphe graminis f. sp. tritici, (the causal agent of wheat powdery mildew) and incubated in a growth chamber at 20° C. for 7 days, after which disease ratings were made.

[8] = system: Phytophthora infestans
[9] = grape seedlings inoculated, sprayed next day (curative), concentration not given

Molecule | Test G disease control rating (100 = 100% disease control, 0 = no control) ([1]; grape seedlings, curative, 100 ppm (footnote *)) | Test D disease control rating (100 = 100% disease control, 0 = no control) [2] [%] | Test E disease control rating (100 = 100% disease control, 0 = no control) [3] [%] | curative utility [4] | Test C disease control rating (100 = 100% disease control, 0 = no control) [5] [%] | Test B disease control rating (100 = 100% disease control, 0 = no control) [6] [%] | Test A disease control rating (100 = 100% disease control, 0 = no control) [7] [%] | Test F disease control rating (100 = 100% disease control, 0 = no control) ([8]; curative, 100 ppm on potato seedlings) | Test G disease control rating (100 = 100% disease control, 0 = no control) [1, 9] [%] | Test F disease control rating (100 = 100% disease control, 0 = no control) ([8]; seedlings inoculated, sprayed next day (curative), concentration not given) [%]
2,4-Dichloro-N-[[3-chloro-5-(trifluoromethyl)-2-pyridinyl]methyl]-3-pyridinecarboxamide [Compound 19] | 37* % | 100 | 100 | significant curative utility | 0 | 35 | 0 | 97# % |  | 
O=C(NCc1ncc(C(F)(F)F)cc1Cl)c1ccc(C(F)(F)F)nc1Br [Compound 12] |  | 32 | 0 |  | 80 | 9 | 0 |  | 0 | 
Cc1nc(Cl)ccc1C(=O)NCc1ncc(C(F)(F)F)cc1Cl [Compound 17] |  | 79 | 16 |  | 13 | 9 | 0 |  | 16 | 
COc1ncccc1C(=O)NCc1ncc(C(F)(F)F)cc1Cl [Compound 9] |  | 7 | 24 |  | 0 | 19 | 0 |  | 24 | 
Cc1ccc(C(=O)NCc2ncc(C(F)(F)F)cc2Cl)c(Cl)n1 [Compound 11] |  | 100 | 98 |  | 90 | 19 | 0 |  | 99 | 0
CCOc1ncccc1C(=O)NCc1ncc(C(F)(F)F)cc1Cl [Compound 10] |  | 3 | 23 |  | 0 | 9 | 0 |  | 23 | 
Cc1nc(C(F)(F)F)ccc1C(=O)NCc1ncc(C(F)(F)F)cc1Cl [Compound 14] |  | 25 | 8 |  | 87 | 28 | 0 |  | 8 | 
Nc1ncccc1C(=O)NCc1ncc(C(F)(F)F)cc1Cl [Compound 6] |  | 7 | 0 |  | 0 | 28 | 0 |  | 8 | 
